The values below come from US9120795B2, “Crystalline form of a β-lactamase inhibitor” (Cubist Pharmaceuticals, Inc., priority 2013, dated 2015).

Experiment [1] relates to Ecl.569 (AmpC, clinical). The experiment in a line: Standard BLI potentiation MIC assay. In kind it is cell-based, Enterobacter spp. To be noted: Enterobacter, read-out: MIC of β-lactam with BLI. How it is done: The experimental protocol was performed according to Clinical and Laboratory Standards Institute (CLSI) guidelines with modifications as described below (CLSI guidelines can be derived from the CLSI document M07-A9 published in January 2012: “Methods for Dilution Antimicrobial Susceptibility Tests for Bacteria That Grow Aerobically; Approved Standard-Ninth Edition”).
To prepare for MIC testing, frozen glycerol stocks of clinical isolates (Klebsiella pneumoniae, Eschericia coli, Enterobacter spp, Citrobacter spp, or Pseudomonas aeruginosa) were used to streak for isolated colonies on rich, non-selective, tryptic soy agar containing 5% sheep's blood (TSAB). Frozen glycerol stocks of laboratory engineered, isogenic E. coli strains, which contain cloned β-lactamase expressing plasmids were used to streak for isolated colonies on rich, selective LB agar supplemented with 25 μg/mL tetracycline to maintain the plasmid. All strains were incubated at 37° C. for 18-24 hrs. […]
Plates were incubated for 18-20 hours at 37° C. with aeration (200 rpm). Following incubation, growth was confirmed visually placing plates over a viewing apparatus (stand with a mirror underneath) and then OD600 was measured using a SpectraMax 340PC384 plate reader (Molecular Devices, Sunnyvale, Calif.). Growth was defined as turbidity that could be detected with the naked eye or achieving minimum OD600 of 0.1. […]

Experiment [2] relates to Kpn clinical, KPC-2. The experiment in a line: Synergy MIC (sMIC) assay. As to conditions: KPC-2, clinical Kpn; CXA-101 at 4 μg/mL. The format is cell-based, Klebsiella pneumoniae. The protocol:
(§1) The synergy MIC (sMIC) assay determines the concentration of the BLI required to potentiate the activity of a fixed concentration of a β-lactam antibiotic against β-lactamase producing bacterial strains. The experimental protocol was performed according to Clinical and Laboratory Standards Institute (CLSI) guidelines with modifications as described below (CLSI guidelines can be derived from the CLSI document M07-A9 published in January 2012: “Methods for Dilution Antimicrobial Susceptibility Tests for Bacteria That Grow Aerobically; Approved Standard-Ninth Edition”). […]
(§2) Plates were incubated for 18-20 hours at 37° C. with aeration (200 rpm). Following incubation, growth was confirmed visually placing plates over a viewing apparatus (stand with a mirror underneath) and then OD600 was measured using a SpectraMax 340PC384 plate reader (Molecular Devices, Sunnyvale, Calif.). Growth was defined as turbidity that could be detected with the naked eye or achieving minimum OD600 of 0.1. sMIC values were defined as the lowest concentration producing no visible turbidity. […]

The subject of experiment [3] is Eco isogenic, P99. The experiment in a line: Synergy MIC (sMIC) assay. In kind it is cell-based, E. coli. To be noted: CXA-101 at 4 μg/mL. The protocol: (§3) The synergy MIC (sMIC) assay determines the concentration of the BLI required to potentiate the activity of a fixed concentration of a β-lactam antibiotic against β-lactamase producing bacterial strains. The experimental protocol was performed according to Clinical and Laboratory Standards Institute (CLSI) guidelines with modifications as described below (CLSI guidelines can be derived from the CLSI document M07-A9 published in January 2012: “Methods for Dilution Antimicrobial Susceptibility Tests for Bacteria That Grow Aerobically; Approved Standard-Ninth Edition”). The assay is set-up by serially diluting the BLI across 11 of the 12 wells in each row of a 96-well broth microdilution assay plate, adding the β-lactam at a fixed concentration to all wells in the assay plate, inoculating the assay plate with bacterial strains, and determining the lowest concentration of BLI required to inhibit overnight bacterial growth.
(§4) To prepare for MIC testing, frozen glycerol stocks of clinical isolates (Klebsiella pneumoniae, Eschericia coli, Enterobacter spp, Citrobacter spp, or Pseudomonas aeruginosa) were used to streak for isolated colonies on rich, non-selective, tryptic soy agar containing 5% sheep's blood (TSAB). Frozen glycerol stocks of laboratory engineered, isogenic E. coli strains, which contain cloned β-lactamase expressing plasmids were used to streak for isolated colonies on rich, selective LB agar supplemented with 25 μg/mL tetracycline to maintain the plasmid. All strains were incubated at 37° C. for 18-24 hrs.
(§5) On the day of testing, primary cultures were started by scraping off 5-10 colonies from the TSAB plates containing clinical strains or the tetracycline supplemented LB plates containing engineered strains. The clinical strain material was suspended in ˜5 mL of cation adjusted Mueller Hinton Broth (CAMHB) in 14 mL culture tubes. The engineered strain material was suspended in CAMHB (supplemented with tetracycline at 25 μg/mL) in 14 mL culture tubes. All strains were incubated at 37° C. with aeration (200 rpm) for ˜2 hrs until the OD600 was ≧0.1.
(§6) The two compound components of the assay were each prepared in CAMHB and added to the 96-well broth microdilution assay plates. 50 μL of the BLI was added to each well of the assay plate in 2-fold dilutions with final concentrations ranging from 128 to 0.13 μg/mL. 25 μL of the β-lactam was added to all wells in the broth microdilution plates at a final concentration of 4 μg/mL. Inoculum cultures were prepared by standardizing the primary cultures to OD600=0.1 and then adding 20 μL of the adjusted primary culture per 1 mL CAMHB for clinical strains or CAMHB (supplemented with tetracycline at 100 μg/mL) for isogenic strains, so that the final inoculum density was ˜10^5 colony forming units per milliliter. Diluted inoculum cultures were used to inoculate 25 μL per well in 96-well broth microdilution assay plates. […]
as §2

Experiment [4] has as its system Eco isogenic, CTX-M-15. In words: Synergy MIC (sMIC) assay. The format is cell-based, E. coli. As to conditions: CTX-M-15, isogenic Eco; CXA-101 at 4 μg/mL. How it is done: as §3, §4, §5, §6, §2
Experiment [5] concerns Eco isogenic, OXA-15. In words: Synergy MIC (sMIC) assay. In kind it is cell-based, E. coli. To be noted: OXA-15, isogenic Eco; CXA-101 at 4 μg/mL. How it is done: as §3, §4, §5, §6, §2
Experiment [6] concerns Eco isogenic, KPC-2. The experiment in a line: Synergy MIC (sMIC) assay. In kind it is cell-based, E. coli. To be noted: KPC-2, isogenic Eco; CXA-101 at 4 μg/mL. How it is done:
as §3, §4, §5, §6, §2

Experiment [7] relates to Pae clinical, KPC-2. The experiment in a line: Synergy MIC (sMIC) assay. In kind it is cell-based, Pseudomonas aeruginosa. To be noted: KPC-2, clinical Pae; CXA-101 at 4 μg/mL. The protocol:
as §1, §2

The structures appear in SMILES notation.

One may read the MIC as the least concentration at which growth counts as inhibited. As to `O=C1N2C[C@@H](CC[C@H]2c2nnco2)N1OS(=O)(=O)[O-].[Na+]` [Hydrate 1, sodium (2S,5R)-2-(1,3,4-oxadiazol-2-yl)-7-oxo-1,6-diazabicyclo[3.2.1]octan-6-yl sulfate], the MIC in experiment [1] was in the range of 0.25 to 0.5 µg/mL. For the same compound, the sMIC entry is listed as “C (C = 4-8 μg/mL)” in experiment [2]; “AA (AA = <0.25 μg/mL)” in experiment [3]; “A (A = 0.25-0.5 μg/mL)” in experiment [4]; “B (B = 1-2 μg/mL)” in experiment [5]; “AA (AA = <0.25 μg/mL)” in experiment [6]; “C (C = 4-8 μg/mL)” in experiment [7].
